Experiment in all cases: biochemical
Common to all, as to design: DiscoveRx KINOMEscan active site-directed competition binding; percent of control kinase bound to immobilised ligand

One test has as its target FGFR1 (Homo sapiens, UniProt P11362).
A further test deals with T1, BRK (Homo sapiens, UniProt Q13882).
T1 construct: gene PTK6

The target in the next test is T2, EPHA1 (Homo sapiens, UniProt P21709).
T2 sequence (P21709 1-976): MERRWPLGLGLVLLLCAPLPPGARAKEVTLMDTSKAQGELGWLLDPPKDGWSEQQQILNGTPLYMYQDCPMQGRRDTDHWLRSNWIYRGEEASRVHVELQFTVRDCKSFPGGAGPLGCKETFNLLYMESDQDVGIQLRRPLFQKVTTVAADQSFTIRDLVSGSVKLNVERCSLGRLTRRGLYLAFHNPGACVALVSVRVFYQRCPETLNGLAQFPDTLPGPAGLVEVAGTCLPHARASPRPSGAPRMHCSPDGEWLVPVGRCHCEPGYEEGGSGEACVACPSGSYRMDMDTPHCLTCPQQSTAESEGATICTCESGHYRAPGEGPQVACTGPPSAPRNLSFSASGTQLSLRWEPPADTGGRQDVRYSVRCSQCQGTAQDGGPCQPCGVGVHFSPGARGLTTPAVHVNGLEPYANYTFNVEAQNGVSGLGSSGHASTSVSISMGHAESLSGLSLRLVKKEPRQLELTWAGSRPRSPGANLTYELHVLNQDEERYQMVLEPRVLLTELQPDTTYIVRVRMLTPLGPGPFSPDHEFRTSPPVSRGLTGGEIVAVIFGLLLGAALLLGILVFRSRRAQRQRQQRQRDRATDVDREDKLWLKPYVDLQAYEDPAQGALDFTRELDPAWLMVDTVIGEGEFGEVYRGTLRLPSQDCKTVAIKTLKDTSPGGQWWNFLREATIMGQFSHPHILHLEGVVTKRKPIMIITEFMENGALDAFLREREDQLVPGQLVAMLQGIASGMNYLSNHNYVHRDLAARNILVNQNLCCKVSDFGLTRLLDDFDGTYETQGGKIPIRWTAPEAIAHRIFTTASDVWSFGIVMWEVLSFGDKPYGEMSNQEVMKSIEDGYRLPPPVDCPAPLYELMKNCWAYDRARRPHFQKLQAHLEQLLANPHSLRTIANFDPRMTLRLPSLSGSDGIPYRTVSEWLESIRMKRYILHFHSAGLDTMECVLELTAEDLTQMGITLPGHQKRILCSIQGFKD

For the next test, the target named is T3, NEK11 (Homo sapiens, UniProt Q8NG66).
T3 sequence (Q8NG66 1-645): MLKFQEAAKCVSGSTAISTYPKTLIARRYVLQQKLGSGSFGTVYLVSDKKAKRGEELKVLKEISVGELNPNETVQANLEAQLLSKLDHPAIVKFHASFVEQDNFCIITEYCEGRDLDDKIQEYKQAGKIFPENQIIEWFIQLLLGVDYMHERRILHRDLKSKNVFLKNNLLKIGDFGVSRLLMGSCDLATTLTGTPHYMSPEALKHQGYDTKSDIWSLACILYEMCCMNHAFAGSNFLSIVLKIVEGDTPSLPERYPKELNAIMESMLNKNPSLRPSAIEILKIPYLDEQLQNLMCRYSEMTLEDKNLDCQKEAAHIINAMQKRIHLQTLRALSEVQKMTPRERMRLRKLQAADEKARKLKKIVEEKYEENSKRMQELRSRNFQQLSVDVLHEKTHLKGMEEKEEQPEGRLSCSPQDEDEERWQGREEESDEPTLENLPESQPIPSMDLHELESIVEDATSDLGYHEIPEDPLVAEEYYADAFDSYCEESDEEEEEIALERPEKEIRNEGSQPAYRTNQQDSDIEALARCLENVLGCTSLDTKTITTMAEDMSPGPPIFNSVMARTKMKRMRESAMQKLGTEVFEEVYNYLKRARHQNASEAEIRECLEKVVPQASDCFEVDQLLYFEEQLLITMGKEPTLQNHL

The target of the next test is T4, MYLK4 (Homo sapiens, UniProt Q86YV6).
T4 sequence (Q86YV6 1-388): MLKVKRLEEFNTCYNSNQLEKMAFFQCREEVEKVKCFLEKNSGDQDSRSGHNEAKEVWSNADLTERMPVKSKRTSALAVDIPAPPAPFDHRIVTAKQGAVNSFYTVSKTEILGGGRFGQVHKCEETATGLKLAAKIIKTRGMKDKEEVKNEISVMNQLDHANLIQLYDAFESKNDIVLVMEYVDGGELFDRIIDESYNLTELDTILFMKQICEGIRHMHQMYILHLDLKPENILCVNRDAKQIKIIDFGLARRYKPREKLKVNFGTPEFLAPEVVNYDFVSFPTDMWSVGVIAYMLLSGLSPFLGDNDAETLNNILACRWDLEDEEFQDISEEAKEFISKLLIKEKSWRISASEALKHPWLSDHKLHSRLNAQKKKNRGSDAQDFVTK

Setting [1] is: read-out: Rucaparib / %Ctrl @ 10000nM, binding competition, % of control.
Where [2] appears, read: read-out: Talazoparib (BMN 673) / %Ctrl @ 10000nM.
The mark [3] stands for this setting: read-out: Niraparib (MK-4827) / %Ctrl @ 10000nM.
The mark [4] stands for this setting: read-out: Olaparib / %Ctrl @ 10000nM.

Where two headings read alike, the source gives them in different places.

T1 sequence (Q13882 whole entry): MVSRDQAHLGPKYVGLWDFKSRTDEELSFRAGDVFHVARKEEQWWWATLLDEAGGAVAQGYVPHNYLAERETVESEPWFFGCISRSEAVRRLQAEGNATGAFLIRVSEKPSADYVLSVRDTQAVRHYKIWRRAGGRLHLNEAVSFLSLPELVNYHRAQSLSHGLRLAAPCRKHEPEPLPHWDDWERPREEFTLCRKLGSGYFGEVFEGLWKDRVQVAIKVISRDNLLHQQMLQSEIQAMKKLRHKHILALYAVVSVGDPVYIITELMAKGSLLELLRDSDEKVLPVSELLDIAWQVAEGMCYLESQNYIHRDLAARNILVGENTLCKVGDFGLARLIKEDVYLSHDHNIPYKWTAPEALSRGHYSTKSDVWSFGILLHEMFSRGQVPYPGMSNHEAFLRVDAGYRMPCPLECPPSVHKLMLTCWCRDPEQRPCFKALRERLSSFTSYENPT
Chain of FGFR1 (P11362 whole entry): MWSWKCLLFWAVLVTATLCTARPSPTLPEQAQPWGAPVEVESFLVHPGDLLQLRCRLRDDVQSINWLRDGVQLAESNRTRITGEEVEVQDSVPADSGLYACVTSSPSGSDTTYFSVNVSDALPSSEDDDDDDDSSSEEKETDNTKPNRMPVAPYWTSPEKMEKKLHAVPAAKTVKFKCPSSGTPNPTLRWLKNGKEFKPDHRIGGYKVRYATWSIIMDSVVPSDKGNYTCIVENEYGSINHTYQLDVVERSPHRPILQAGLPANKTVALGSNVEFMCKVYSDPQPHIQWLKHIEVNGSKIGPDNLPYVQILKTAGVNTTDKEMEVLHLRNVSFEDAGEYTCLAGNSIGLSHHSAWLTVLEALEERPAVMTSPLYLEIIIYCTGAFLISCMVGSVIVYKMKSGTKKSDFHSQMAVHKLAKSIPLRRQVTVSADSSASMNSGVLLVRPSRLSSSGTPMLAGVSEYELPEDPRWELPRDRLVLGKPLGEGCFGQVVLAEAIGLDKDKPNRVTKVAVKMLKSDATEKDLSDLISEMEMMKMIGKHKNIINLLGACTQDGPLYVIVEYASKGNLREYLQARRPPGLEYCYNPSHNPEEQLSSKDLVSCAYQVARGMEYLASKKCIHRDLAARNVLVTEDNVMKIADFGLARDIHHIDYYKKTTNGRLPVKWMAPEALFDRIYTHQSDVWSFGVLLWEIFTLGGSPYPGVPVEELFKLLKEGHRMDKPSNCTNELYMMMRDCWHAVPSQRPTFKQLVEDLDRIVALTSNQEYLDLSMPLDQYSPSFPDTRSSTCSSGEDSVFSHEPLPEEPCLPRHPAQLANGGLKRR

Regarding `CNCc1ccc(-c2[nH]c3cc(F)cc4c3c2CCNC4=O)cc1` [Rucaparib], the percent of control binding at 10 µM is 91% at FGFR1 (setting [1]); 99% at BRK (setting [1]); 99% on EPHA1 (setting [1]); 91% at NEK11 (setting [1]); 1.3% on MYLK4 (setting [1]).

Consider `Cn1ncnc1[C@H]1c2n[nH]c(=O)c3cc(F)cc(c23)N[C@@H]1c1ccc(F)cc1` [Talazoparib], for which the percent of control binding at 10 µM was found to be 94% on FGFR1 (setting [2]); 100% on BRK (setting [2]); 98% at EPHA1 (setting [2]); 100% on NEK11 (setting [2]); 90% on MYLK4 (setting [2]).

Regarding `NC(=O)c1cccc2cn(-c3ccc([C@@H]4CCCNC4)cc3)nc12` [Niraparib], the percent of control binding at 10 µM at FGFR1 (setting [3]) was 88%; at BRK (setting [3]) it was 91%; on EPHA1 (setting [3]) it was 86%; on NEK11 (setting [3]), 99%; on MYLK4 (setting [3]), 20%.

As for `O=C(c1cc(Cc2n[nH]c(=O)c3ccccc23)ccc1F)N1CCN(C(=O)C2CC2)CC1` [Olaparib], the percent of control binding at 10 µM turned out to be 100% at FGFR1 (setting [4]); 88% at BRK (setting [4]); 92% on EPHA1 (setting [4]); 82% at NEK11 (setting [4]); 92% at MYLK4 (setting [4]).

The values above are taken from article PMC7026418, “The kinase polypharmacology landscape of clinical PARP inhibitors” (Scientific Reports, 2020).
